# Data taken from US20230026808A1, “COMPOUNDS, COMPOSITIONS, AND METHODS FOR TREATING ISCHEMIA-REPERFUSION INJURY AND/OR LUNG INJURY” (YALE UNIVERSITY, priority 2019, published 2023).
# “Also recorded” adds a separate entry of the source. Where two headings read alike, the source gives them in different places. Marks after values point to notes of the source that are not given here.
# Experiments:
# [1] = Clinical pharmacokinetics of pazopanib; type: in vivo; settings: human, IV 20 mg/subject, extrapolated
# [2] = tested on: lung transplantation-induced injury; test: Pilot clinical study in paired single lung transplantation recipients; type: in vivo, human
# From the text: These represent all of the patients who were eligible for single LT and consented for enrollment into the study between Mar. 1, 2018 and Aug. 31, 2018. […] The baseline characteristics, surgical information, medical records during their ICU stay, as well as ventilator parameters, arterial blood gas analysis, and chest X-ray results within 5 days after LT were collected. All of the five donors were enrolled in a voluntary organ donation program and died of accident or disease.
# The chest X-ray scores were obtained in the following manner: the heart field was regarded as the center, and the lung field was divided into four quadrants. Non-opacified regions, 0 points; opacified regions limited to 1/4 lung area, 1 point; limited to 2/4 lung area, 2 points; limited to 3/4 lung area, 3 points; in all lung fields, 4 points. Scores were independently collected by a clinician and a radiologist who were blinded for the treatment, and the average was used. If the difference between the two evaluators was greater than 1 point, discussion was conducted to reach a consensus. Hypoxemia index=PaO2/FiO2, measured by arterial blood gas analysis.
# In the pilot clinical study, the linear mixed model repeated measures analysis was performed to compare the hypoxemia and X-ray scores over time between two groups accounting for both within-subject correlation and correlation of paired recipients. Time by group interaction was included in the model to examine the difference in trajectory of outcomes between two groups. Linear contrast was used to compare difference at each post-transplant day, and overall mean difference between groups as well. The analysis was conducted with SAS version 9.4 (SAS Inc., Cary, N.C.). The significance was set as p<0.05, two-sided.
# LPS-induced ALI = test: LPS-induced acute lung injury mouse model; type: in vivo
# HCl-induced ALI = test: Acid aspiration (HCl)-induced acute lung injury mouse model; type: in vivo; settings: for BAL cytokine contents / myeloid cell (neutrophil) infiltration in BAL and lungs: injured lungs; for phosphorylated AKT levels in lung extracts: lungs subjected to ALI, AKT S473; for effect on survival: mice lacking p47^phox in hematopoietic cells
# Description: Mice were anaesthetized by ketamine/Xylazine ([…] and 100 mg/kg) and were secured vertically from their incisors on a custom-made mount for orotracheal instillation. A 22G catheter (Jelco, Smiths Medical) was guided 1.5 cm below the vocal cords, and 2.5 μl/g of 0.05 M HCl was instilled. Four hours after the induction of injury, 100 μl of FITC-labeled albumin (10 mg/ml) was injected via retro-orbital vein. Mice were euthanized for sample collection 6 hours after the induction of injury. For the baseline permeability measurement, saline without HCl was administered the same way. The baseline permeability measurement was subtracted in the data presented.
# In survival experiments, mice received 2.5 μl/g of 0.1 M HCl orotracheally and the observation period was extended up to 30 h.
# Acute lung injury indices were quantified using HE-stained lung sections. The quantification of perivascular interstitial edema was done as the ratios of perivascular interstitial edema areas to vessel areas. More than 8 sections from the same lobes of the lungs were quantified for each mouse.
# Fifteen min after HCl ALI-induction, BALs were collected from the lungs. Mouse lungs were then mechanically dissociated and filtered through a 40 μm mesh to generate a single-cell suspension, and red blood cells were lysed. BAL cells, which were pelleted and resuspended, and whole lung cells were labeled for 30 minutes at 37° C. with 1 μM CM-H2-DCFDA (C6827, Invitrogen). The cells were then labeled for the surface markers (CD45; BD Bioscience 564279; Ly-6G; BD Bioscience 560602). Flow cytometry was performed on a BD LSRII.
# [3] = cited from earlier work; for AUC / Cmax: human
# p38 phosphorylation = p38 phosphorylation in mouse neutrophils; type: cell-based
# Description: Mouse bone marrow neutrophils were isolated from long bones. After lysis of red blood cells (RBCs) with ACK buffer (155 mM NH4Cl, 10 mM KHCO3 and 127 μM EDTA), bone marrow cells were separated on a discontinuous Percoll gradient composed of 81%, 62%, and 45% Percoll. Neutrophils were collected at the interphase between 81% and 62% Percoll, washed in HBSS, and used for assays.
# [4] = IV toxicology and toxicokinetic studies in rats; settings: for safety margin based on Cmax: vs Cmax 3.4 μg/mL in man (20 mg IV)
# in vivo = settings: monkey, iv; for AUC(0-inf) / Cmax: 10 mg/kg/day
# [5] = therapeutic modality, intranasally post injury induction
# [6] = HCl model, therapeutic modality, intranasally post injury induction
# [7] = IV administration 5 mg/subject (N=7)
# [8] = oral, reported with bioavailability
# [9] = rat, 5 days, IV 20 minute infusion
structure (smiles),measurement,setting,value
"Cc1ccc(Nc2nccc(N(C)c3ccc4c(C)n(C)nc4c3)n2)cc1S(N)(=O)=O [pazopanib, 5-((4-((2,3-dimethyl-2H-indazol-6-yl)(methyl)amino)pyrimidin-2-yl)amino)-2-methylbenzenesulfonamide]","AUC(0-∞), assuming dose-linearity",[1],81.6^a μg·h/mL
same,"Cmax, assuming dose-linearity",[1],3.4^a μg/mL
same,AUC(0-inf),"[1]; in vivo, read-out: AUC(0-∞), assuming dose-linearity",81.6 µg·h/mL
same,Cmax,"[1]; in vivo, read-out: Cmax, assuming dose-linearity",3.4 µg/mL
same,"X-ray opacity score, difference treatment vs control group","[2]; first day, pazopanib 200 mg oral before surgery",0.6
same,"X-ray opacity score, difference treatment vs control group","[2]; last day, pazopanib 200 mg oral before surgery",0.7
same,pulmonary edema,[2]; lung transplantation-induced injury,significantly reduced pulmonary edema
same,"X-ray score lower than control group, on average","[2]; overall mean, pazopanib 200 mg oral before surgery",0.5 point
same,mortality,"LPS-induced ALI; prophylactic, orally prior to injury",reduced
same,mortality,LPS-induced ALI; [5],significant reductions; also recorded: reduces mortality
same,perivascular interstitial edema,LPS-induced ALI; [5],significant reductions
same,mortality,"HCl-induced ALI; HCl model, prophylactic, intranasally prior to injury",reduced
same,mortality,HCl-induced ALI; [6],significant reductions; also recorded: reduces mortality
same,perivascular interstitial edema,HCl-induced ALI; [6],significant reductions
same,BAL cytokine contents,HCl-induced ALI,did not affect
same,myeloid cell (neutrophil) infiltration in BAL and lungs,HCl-induced ALI,did not affect
same,BAL cytokine contents,HCl-induced ALI; listed as Pazopanib,no significant effects
same,myeloid cell (neutrophil) infiltration in BAL and lungs,HCl-induced ALI; listed as Pazopanib,no significant effects
same,phosphorylated AKT levels in lung extracts,HCl-induced ALI,increases in phosphorylated AKT levels
same,phosphorylated AKT levels in lung extracts,HCl-induced ALI; listed as Pazopanib,increases phosphorylation of AKT at S473
same,effect on survival,HCl-induced ALI,abrogated the effects of pazopanib
same,effect on survival,HCl-induced ALI; listed as Pazopanib,failed to increase survival
same,ROS in neutrophils in BALs and lungs,"HCl-induced ALI; pazopanib-treated mice subjected to HCl lung insult, DCFDA",elevated ROS
same,AUC,[3]; [7],20.4 µg·h/mL
same,Cmax,[3]; [7],0.848 µg/mL
same,AUC,[3]; [8],806 µg·h/mL
same,Cmax,[3]; [8],43.9 µg/mL
same,half-life (t1/2),[3]; in man,27.5 h
same,p38 phosphorylation,p38 phosphorylation,did not affect
same,Margin of safety,[4]; 2-week rat study vs 20 mg clinical starting dose,5.6 fold
same,safety margin based on Cmax,[4]; female rats,16.2 fold
same,safety margin based on Cmax,[4]; male rats,13.8 fold
same,HED for 70 kg human,"[4]; rat, 2-week study",112 mg
same,HED of NOAEL,[4]; [9],8 mg/kg
same,NOAEL,[4]; [9],50 mg/kg
same,Margin of safety,"[4]; rat, 5 days, IV 20 minute infusion, clinical dose 20 mg/day or 0.29 mg/kg",27.6X
same,Margin of safety,"[4]; rat, 14 days, IV 20 minute infusion, clinical dose 20 mg/day or 0.29 mg/kg",5.6X
same,t1/2,"[4]; rat, in vivo",a few hours
same,HED of NOAEL,"[4]; rat, single dose, IV bolus",4.8 mg/kg
same,Margin of safety,"[4]; rat, single dose, IV bolus, clinical dose 20 mg/day or 0.29 mg/kg",16.6X
same,AUC(0-inf),in vivo; female,167 µg·h/mL
same,Cmax,in vivo; female,80 µg/mL
same,AUC(0-inf),in vivo; male,143 µg·h/mL
same,Cmax,in vivo; male,85 µg/mL
same,NOAEL at 2 weeks,"in vivo; NOAEL (no observed adverse effect level), monkeys, 2-week GLP IV infusion (20-minute)",10 mg/kg/day
same,NOAEL at 5 days,"in vivo; NOAEL, 5 days, IV 20 minute infusion",30 mg/kg
same,NOAEL at 14 days,"in vivo; NOAEL, 14 days, IV 20 minute infusion",10 mg/kg
same,margin of safety based on AUC values,2-week rat and monkey studies,< 10 fold
same,safety margin based on Cmax,female monkeys,23 fold
same,safety margin based on Cmax,male monkeys,25 fold
same,HED for 70 kg human,"monkey, 2-week study",224 mg
same,Margin of safety,"monkey, 5 days, IV 20 minute infusion, clinical dose 20 mg/day or 0.29 mg/kg",33.1X
same,t1/2,monkeys,a few hours
